Data published in ChEMBL document CHEMBL1126187, “New bronchodilators. 3. Imidazo[4,5-c][1,8]naphthyridin-4(5H)-ones” (J Med Chem, 1992).

Assays:
Cavia porcellus [1] = species: Cavia porcellus; assay: Schultz-Dale (SD) reaction in tracheal strip isolated from passively sensitized guinea pigs; type: functional
[2] = biological target: Phosphodiesterase 4 (Canis familiaris); assay: Inhibition of Canine Tracheal Smooth Muscle PDE 4
Mus musculus = assay: Acute lethal toxicity in mice on peroral administration.; type: organism-based; settings: in vivo, po
Cavia porcellus [3] = assay: Mean collapse time in antigen induced bronchospasm in passively sensitized guinea pigs at 10 mg/kg peroral dose; type: functional; settings: route oral
[4] = biological target: Phosphodiesterase 4 (Canis familiaris); assay: Inhibition of Canine Tracheal Smooth Muscle PDE 4; remark: listed apart in the source
Cavia porcellus [5] = assay: Mean collapse time in antigen induced bronchospasm in passively sensitized guinea pigs at 5 mg/kg peroral dose; type: functional; settings: route oral
Cavia porcellus [6] = species: Cavia porcellus; assay: Effect on LTD4 induced contraction of guinea pig tracheal strips; type: functional; settings: Trachea
Cavia porcellus [7] = assay: Mean collapse time in antigen induced bronchospasm in passively sensitized guinea pigs at 0.1 mg/kg peroral dose; type: functional; settings: route oral
Cavia porcellus [8] = assay: Mean collapse time in antigen induced bronchospasm in passively sensitized guinea pigs at 1 mg/kg peroral dose; type: functional; settings: route oral
Cavia porcellus [9] = species: Cavia porcellus; assay: Effect on carbachol induced contraction of guinea pig tracheal strips; type: functional; settings: Trachea
Cavia porcellus [10] = species: Cavia porcellus; assay: Effect on histamine induced contraction of guinea pig tracheal strips; type: functional; settings: Trachea
Cavia porcellus [11] = assay: Mean collapse time in antigen induced bronchospasm in passively sensitized guinea pigs at 50 mg/kg peroral dose; type: functional; settings: route oral
Cavia porcellus [12] = assay: Mean collapse time in antigen induced bronchospasm in passively sensitized guinea pigs at 0.50 mg/kg peroral dose; type: functional; settings: dose 0.5 mg/kg; route oral
Cavia porcellus [13] = assay: Mean collapse time in antigen induced bronchospasm in passively sensitized guinea pigs at 25 mg/kg peroral dose; type: functional; settings: route oral

Cn1cnc2c(=O)n(-c3ccccc3)c3ncccc3c21
IC50 (Cavia porcellus [1]): > 30 µM

Oc1c2ncnc-2c2ccccc2n1-c1ccccc1
IC50 (Cavia porcellus [1]): > 30 µM

CCCCn1c(=O)c2c(ncn2C)c2cccnc21
IC50 [2]: 3.6 µM | IC50 (Cavia porcellus [1]): 3.57 µM | MLD (Mus musculus): 200 mg/kg | MCT (Cavia porcellus [3]): 215 s

COc1cccc(-n2c(O)c3ncnc-3c3cccnc32)c1
IC50 (Cavia porcellus [1]): > 30 µM

Oc1c2ncnc-2c2cccnc2n1-c1cccc(Cl)c1
IC50 (Cavia porcellus [1]): > 30 µM

CCOC(=O)c1ccc(-n2c(O)c3ncnc-3c3cccnc32)cc1
IC50 (Cavia porcellus [1]): > 30 µM

Oc1c2nnnc-2c2cccnc2n1-c1ccccc1
IC50 (Cavia porcellus [1]): > 30 µM

Oc1c2nc(-c3ccccc3)nc-2c2cccnc2n1-c1ccccc1
IC50 (Cavia porcellus [1]): > 30 µM

CCN(CC)CCCn1cnc2c3cccnc3n(-c3ccccc3)c(=O)c21
IC50 (Cavia porcellus [1]): > 30 µM

O=c1c2c(ncn2CCCN2CCOCC2)c2cccnc2n1-c1ccccc1
IC50 (Cavia porcellus [1]): > 30 µM

CCn1cnc2c3cccnc3n(-c3ccccc3)c(=O)c21
IC50 [2]: 2 µM | IC50 (Cavia porcellus [1]): 0.47 µM | MLD (Mus musculus): 100 mg/kg

Cn1cnc2c3cccnc3n(-c3ccccc3)c(=O)c21
IC50 [2]: 6.6 µM | IC50 (Cavia porcellus [1]): 0.22 µM | MLD (Mus musculus): 100 mg/kg | MCT (Cavia porcellus [3]): 543 s

CC(C)n1cnc2c3cccnc3n(-c3ccccc3)c(=O)c21
IC50 [2]: 2.5 µM | IC50 (Cavia porcellus [1]): 4.98 µM | MLD (Mus musculus): 200 mg/kg

CC(C)Cn1cnc2c3cccnc3n(-c3ccccc3)c(=O)c21
IC50 [2]: 0.15 µM | IC50 (Cavia porcellus [1]): 6.78 µM | MLD (Mus musculus): 300 mg/kg | MCT (Cavia porcellus [3]): 551 s

CCCCn1c(=O)c2ncn(C)c2c2cccnc21
IC50 (Cavia porcellus [1]): 13 µM | MLD (Mus musculus): 300 mg/kg | MCT (Cavia porcellus [3]): 335 s

Cc1cccc(-n2c(O)c3ncnc-3c3cccnc32)c1
IC50 (Cavia porcellus [1]): > 30 µM

Cc1ccc(-n2c(O)c3ncnc-3c3cccnc32)cc1
IC50 (Cavia porcellus [1]): > 30 µM

CCOC(=O)c1cccc(-n2c(O)c3ncnc-3c3cccnc32)c1
IC50 (Cavia porcellus [1]): > 30 µM

CCCCn1c(O)c2ncnc-2c2cccnc21
IC50 (Cavia porcellus [1]): > 30 µM

Cc1nc2c(O)n(-c3ccccc3)c3ncccc3c-2n1
IC50 (Cavia porcellus [1]): > 30 µM

COc1ccc(-n2c(O)c3ncnc-3c3cccnc32)cc1
IC50 (Cavia porcellus [1]): > 30 µM

O=C(O)Cn1cnc2c3cccnc3n(-c3ccccc3)c(=O)c21
IC50 (Cavia porcellus [1]): > 30 µM

CCCCCCn1cnc2c3cccnc3n(-c3ccccc3)c(=O)c21
IC50 (Cavia porcellus [1]): > 30 µM

CC(C)n1cnc2c(=O)n(-c3ccccc3)c3ncccc3c21
IC50 (Cavia porcellus [1]): > 30 µM

Oc1c2ncnc-2c2cccnc2n1-c1ccccc1
IC50 [4]: 12 µM | MCT (Cavia porcellus [5]): 483 s | IC50 (Cavia porcellus [6]): 3.04 µM | MCT (Cavia porcellus [7]): 301 s | MCT (Cavia porcellus [8]): 397 s | IC50 (Cavia porcellus [1]): 2.18 µM | MLD (Mus musculus): > 300 mg/kg | IC50 (Cavia porcellus [9]): 10.2 µM | IC50 (Cavia porcellus [10]): 5.72 µM | MCT (Cavia porcellus [3]): 457 s | MCT (Cavia porcellus [11]): 491 s | MCT (Cavia porcellus [12]): 410 s

CCCn1cnc2c3cccnc3n(-c3ccccc3)c(=O)c21
IC50 [2]: 0.52 µM | IC50 (Cavia porcellus [1]): 8.3 µM | MLD (Mus musculus): 200 mg/kg | MCT (Cavia porcellus [3]): 505 s

CCCCn1cnc2c3cccnc3n(-c3ccccc3)c(=O)c21
IC50 (Cavia porcellus [1]): > 30 µM

COc1ccc(C2CNC(=O)C2)cc1OC1CCCC1 (stereo not given) [ROLIPRAM]
IC50 (Cavia porcellus [1]): 0.34 µM

Cn1c(=O)c2nc[nH]c2n(C)c1=O.O [THEOPHYLLINE]
MCT (Cavia porcellus [3]): 343 s | MCT (Cavia porcellus [11]): 414 s | MCT (Cavia porcellus [13]): 389 s
